# Laboratory results from patent US6630321B1, “Method for identifying a compound that modulates the function of the gene product of an essential gene” (priority 1999, dated 2003).
# Numbered stars: 1 amine (or outer) side, 2 acyl side, 3 side chain; on linkers, the order of the positions; unused ones are H or OH. Square brackets hold non-standard residues; d marks the D form. Peptide text beside a SMILES is read from it. X1 = CC[C@@H](C)[C@@H](O[*:1])C(=O)[*:2]; NMeVal(β-OH) = CN[C@H](C(=O)O)C(C)(C)O; NMeF = CN[C@@H](Cc1ccccc1)C(=O)O; aIle = CC[C@@H](C)[C@H](N)C(=O)O; NMeV = CN[C@H](C(=O)O)C(C)C
# Experiments:
# GAL1-AUR1 strain = test: growth (optical density) hypersensitivity of GAL1-AUR1 strain after promoter switch-off, compared to wild type; format: cell-based, S. cerevisiae; settings: GAL1 promoter switched OFF (galactose to glucose), final optical density vs wt
# Source text: (§1) By “viable” we mean cells that have grown sufficiently so that when gene expression of an essential gene is turned off, meaningful measurements and kinetic analysis may be made. The cells are preferably allowed to grow into early stationary phase by which time a final optical density reading is taken. A reduced optical density compared to no drug or no switchoff controls is interpreted as growth inhibition.
# However no reduction in growth will be observed as long as the amount of active Erg11p is high enough not to be rate limiting for growth (above the threshold, see FIG. 2) In our example the fluconazole concentration is insufficient to reduce Erg11p activity below this threshold. The situation for a GAL1-driven ERG11 gene is different however: At time 0 the gene's engineered promoter is switched from the ON state (because of the high expression of a GAL1 promoter this level is usually higher than for the native promoter) to the OFF state by changing the carbon source in the culture. From this timepoint on no new mRNA is transcribed and—after decay of the mRNA—no new Erg11 protein is being synthesized. Erg11 concentrations are now falling due to the dilution of the enzyme into new daughter cells and protein decay of Erg11p. […] This is reflected by a lower final optical density of the culture. […] Therefore the threshold-line is crossed earlier, as no new Erg11p can be synthesized. […]
# GAL1-ERG11 strain = test: growth (optical density) hypersensitivity of GAL1-ERG11 strain after promoter switch-off, compared to wild type; format: cell-based, S. cerevisiae; settings: GAL1 promoter switched OFF (galactose to glucose), final optical density vs wt
# Source text: as §1
# However no reduction in growth will be observed as long as the amount of active Erg11p is high enough not to be rate limiting for growth (above the threshold, see FIG. 2) In our example the fluconazole concentration is insufficient to reduce Erg11p activity below this threshold. The situation for a GAL1-driven ERG11 gene is different however: At time 0 the gene's engineered promoter is switched from the ON state (because of the high expression of a GAL1 promoter this level is usually higher than for the native promoter) to the OFF state by changing the carbon source in the culture. From this timepoint on no new mRNA is transcribed and—after decay of the mRNA—no new Erg11 protein is being synthesized. Erg11 concentrations are now falling due to the dilution of the enzyme into new daughter cells and protein decay of Erg11p. […] This is reflected by a lower final optical density of the culture. […] Therefore the threshold-line is crossed earlier, as no new Erg11p can be synthesized. Compared to the wild-type cell, this is seen as hypersensitivity (larger reduction in growth in the presence of an identical concentration of drug). Simplified one can explain this as a reduced amount of cell-doublings before rate-limiting conditions occur.
# For target and compound evaluation the hypersensitivity has to be specific for certain drug-target combinations. Therfore the method was tested and validated with another unrelated known drug-target combination: The AUR1 gene encodes inositolphosphorylceramide (IPC) synthase, an essential enzyme of the fungal sphingolipid biosynthetic pathway (Nagiec et al, J.Biol.Chem., 1997, 272,15, 9809-9817). […]
# [1] = target: T1, inositolphosphorylceramide (IPC) synthase (AUR1) (Saccharomyces cerevisiae, UniProt P36107); settings: cited from earlier work
# T1 sequence (P36107 1-401): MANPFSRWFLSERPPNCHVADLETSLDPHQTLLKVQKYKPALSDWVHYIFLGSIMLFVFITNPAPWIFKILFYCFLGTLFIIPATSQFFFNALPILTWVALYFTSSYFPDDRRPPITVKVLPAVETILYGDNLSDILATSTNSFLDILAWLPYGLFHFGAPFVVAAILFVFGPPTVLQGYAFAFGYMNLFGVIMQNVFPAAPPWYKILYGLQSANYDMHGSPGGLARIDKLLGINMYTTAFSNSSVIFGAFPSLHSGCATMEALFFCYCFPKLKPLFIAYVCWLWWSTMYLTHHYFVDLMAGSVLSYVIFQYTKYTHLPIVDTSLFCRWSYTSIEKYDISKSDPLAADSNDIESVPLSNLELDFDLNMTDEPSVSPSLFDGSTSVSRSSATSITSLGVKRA
# T1 sequence (Q06346 1-221 partner): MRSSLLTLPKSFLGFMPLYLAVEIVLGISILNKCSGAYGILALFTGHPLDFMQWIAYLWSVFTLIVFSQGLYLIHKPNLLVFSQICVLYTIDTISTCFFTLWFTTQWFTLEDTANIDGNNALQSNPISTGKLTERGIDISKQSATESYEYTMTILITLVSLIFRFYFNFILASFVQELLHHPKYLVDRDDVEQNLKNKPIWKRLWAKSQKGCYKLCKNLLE
# [2] = target: Erg11p, lanosterol C-14-demethylase (Saccharomyces cerevisiae, UniProt P10614); settings: cited from earlier work
# Sequence of Erg11p, lanosterol C-14-demethylase (P10614 whole entry): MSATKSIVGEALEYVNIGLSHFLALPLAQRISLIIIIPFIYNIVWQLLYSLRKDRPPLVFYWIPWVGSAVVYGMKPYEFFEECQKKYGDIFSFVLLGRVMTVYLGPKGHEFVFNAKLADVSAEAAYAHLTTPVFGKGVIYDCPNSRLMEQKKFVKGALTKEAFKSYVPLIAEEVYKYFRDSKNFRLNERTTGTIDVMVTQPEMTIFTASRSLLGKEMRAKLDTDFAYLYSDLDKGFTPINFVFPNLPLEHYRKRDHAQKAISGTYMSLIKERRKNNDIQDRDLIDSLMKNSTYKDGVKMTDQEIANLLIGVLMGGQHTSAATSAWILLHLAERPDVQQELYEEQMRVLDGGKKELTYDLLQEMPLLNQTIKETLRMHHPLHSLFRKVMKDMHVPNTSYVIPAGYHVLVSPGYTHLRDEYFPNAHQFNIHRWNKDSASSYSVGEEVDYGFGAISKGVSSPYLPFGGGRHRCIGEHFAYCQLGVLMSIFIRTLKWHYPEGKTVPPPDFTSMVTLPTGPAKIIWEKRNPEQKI
# [3] = target: Erg1p, squalene epoxidase (Saccharomyces cerevisiae, UniProt P32476); settings: cited from earlier work
# Sequence of Erg1p, squalene epoxidase (P32476 whole entry): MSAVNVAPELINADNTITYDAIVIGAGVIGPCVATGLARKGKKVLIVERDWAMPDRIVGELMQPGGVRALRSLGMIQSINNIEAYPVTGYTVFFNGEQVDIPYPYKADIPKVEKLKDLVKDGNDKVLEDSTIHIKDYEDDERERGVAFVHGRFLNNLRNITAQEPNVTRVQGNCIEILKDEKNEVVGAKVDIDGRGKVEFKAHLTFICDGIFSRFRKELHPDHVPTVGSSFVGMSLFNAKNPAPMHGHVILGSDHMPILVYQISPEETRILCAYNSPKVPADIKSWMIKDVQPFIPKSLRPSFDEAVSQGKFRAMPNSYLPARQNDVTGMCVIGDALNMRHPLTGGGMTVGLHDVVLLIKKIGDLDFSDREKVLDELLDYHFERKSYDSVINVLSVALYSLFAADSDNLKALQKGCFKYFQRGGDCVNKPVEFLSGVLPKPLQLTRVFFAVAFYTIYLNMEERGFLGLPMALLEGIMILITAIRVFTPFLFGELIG
# GAL1-ERG1 strain = test: growth (optical density) hypersensitivity of GAL1-ERG1 strain after promoter switch-off, compared to wild type; format: cell-based, S. cerevisiae; settings: GAL1 promoter switched OFF, FIG. 5
# Source text: as §1
# It follows that the hypersensitive reaction towards an inhibitor of one enzyme in a pathway may be extended to inhibitors of the whole pathway. This is due to the linear arrangement of enzymes in a biochemical cascade of reactions where one enzyme provides substrate for the next. A reduced substrate supply can act synergistically with a reduced enzyme level. Thus the activity of the almost rate-limiting enzyme Erg11p (after switchoff) will be reduced further by withdrawal of its substrate normally provided by Erg1p, squalene epoxidase, another enzyme of the sterol biosynthetic pathway, through several biochemical steps. Erg1p is now inhibited by terbinafine. Any such pathway specific hypersensitivity allows the categorisation of (uncategorised) genes into the same pathway as the switched off gene. To investigate this, we examined Erg1p. […] This pathway-specific analysis tool will be extremely useful for the classification of novel inhibitors (with unknown mode of action).
Compound,hypersensitivity (larger reduction in growth than wild type at identical drug concentration) (GAL1-AUR1 strain),hypersensitivity (larger reduction in growth than wild type at identical drug concentration) (GAL1-ERG11 strain),potency of enzyme inhibition [1],enzyme inhibition [2],enzyme inhibition [3],hypersensitivity (larger reduction in growth than wild type at identical drug concentration) (GAL1-ERG1 strain)
CC[C@@H](C)[C@@H]1NC(=O)[C@@H]2CCCN2C(=O)[C@H](Cc2ccccc2)N(C)C(=O)[C@H](Cc2ccccc2)NC(=O)[C@H](C(C)C)N(C)C(=O)[C@@H]([C@H](C)CC)OC(=O)[C@H](C(C)(C)O)N(C)C(=O)[C@H](CC(C)C)NC(=O)[C@H](C(C)C)N(C)C1=O [aureobasidinA] (cyclo(F[NMeF]P[aIle][NMeV]L[NMeVal(β-OH)][X1][NMeV])),prominent hypersensitive response,no increased sensitivity,sub nanomolar potency,,,
CN(C/C=C/C#CC(C)(C)C)Cc1cccc2ccccc12 [terbinafine],,as hypersuscepible to terbinafine as GAL1-ERG1,,Erg11p is not,inhibited,hypersuscepible
OC(Cn1cncn1)(Cn1cncn1)c1ccc(F)cc1F [fluconazole],neither did GAL1-AUR1 show hypersensitivity,prominent hypersensitive response,,inhibits Erg11p,,
